Test system: circBRIP1 in HCT116 cells
Test: DHX9 circBRIP1 cellular target engagement SYBR Green assay (qPCR)
Format: cell-based
Conditions: Homo sapiens, HCT-116, circBRIP1, HCT116 cells; SyBr assay (marked ^+); read-out: DHX9 Cellular Target Engagement EC50

EC50 [nM]	SMILES
265	CSc1cccnc1-n1cc(C(=O)Nc2cc(Cl)cc(NS(C)(=O)=O)c2)cn1 [Example 219]
5980	Cc1cccc2cc(C(=O)Nc3cc(Cl)cc(NS(C)(=O)=O)c3)cn12 [Example 304]
563	Cc1cccnc1-n1cc(C(=O)Nc2cc(Br)cc(NS(C)(=O)=O)c2)cc1C [Example 45]
2250	CS(=O)(=O)Nc1cc(Cl)cc(NC(=O)c2cnn(-c3ncccc3C#N)c2)c1 [Example 46]
3090	CS(=O)(=O)Nc1cc(Cl)cc(NC(=O)c2cc(-c3ccccc3)n(CC(F)(F)F)c2)c1 [Example 80]
457	CS(=O)(=O)Nc1cc(Br)cc(NC(=O)c2cc(-c3cccnc3)cs2)c1 [Example 78]
997	CS(=O)(=O)Nc1cc(Cl)cc(NC(=O)c2cnn(-c3ncccc3OCc3cccc(O)c3)c2)c1 [Example 179]
1120	CCn1cc(C(=O)Nc2cc(Cl)cc(NS(C)(=O)=O)c2)cc1-c1ccccc1 [Example 79, N-(3-chloro-5-(methylsulfonamido)phenyl)-1-ethyl-5-phenyl-1H-pyrrole-3-carboxamide]
373	CS(=O)(=O)Nc1cc(Cl)cc(NC(=O)c2cnn(-c3ccc(C4CCOCC4)cn3)c2)c1 [Example 190]
189	CCS(=O)(=O)Nc1cc(Cl)cc(NC(=O)c2cc(-c3ncc(F)cn3)cs2)c1 [Example 343]
190	CS(=O)(=O)Nc1cc(Cl)cc(NC(=O)c2cc(-c3ccc(N4CCOCC4)cn3)n(CC(F)(F)F)c2)c1 [Example 275]
> 30000	CS(=O)(=O)Nc1cc(F)cc(NC(=O)c2c[nH]c(Br)c2)c1 [Example 2]
3940	Cc1ccc2cc(C(=O)Nc3cc(Cl)cc(NS(C)(=O)=O)c3)cn2c1 [Example 300]
2680	CS(=O)(=O)Nc1cc(Cl)cc(NC(=O)c2cnn(-c3ncc(N4CCOCC4)cc3OCc3cccnc3)c2)c1 [Example 194]
> 10000	CS(=O)(=O)Nc1cc(Cl)cc(NC(=O)c2cnn(CCc3ccccc3)c2)c1 [Example 308]
1180	COCc1sc(C(=O)Nc2cc(Cl)cc(NS(C)(=O)=O)c2)cc1-c1ccccn1 [Example 234]
> 10000	CS(=O)(=O)Nc1cc(Cl)cc(NC(=O)c2cnn(C3CC4(COC4)C3)c2)c1 [Example 128]
> 10000	CS(=O)(=O)Nc1cc(Cl)cc(NC(=O)c2cc3ccc(F)cc3s2)c1 [Example 294]
341	CS(=O)(=O)Nc1cc(Cl)cc(NC(=O)c2cnn(-c3ncc(F)cc3OCc3cccc(C#N)c3)c2)c1 [Example 203]
421	CS(=O)(=O)Nc1cc(Cl)cc(NC(=O)c2cc(-c3ncccc3C(F)(F)F)cs2)c1 [Example 223]
6090	CS(=O)(=O)Nc1cc(Cl)cc(NC(=O)c2cc3c(F)ccc(F)c3s2)c1 [Example 325]
122	CS(=O)(=O)Nc1cc(Cl)cc(NC(=O)c2cc(-c3ncccc3Cc3ncccn3)cs2)c1 [Example 384]
388	CCS(=O)(=O)Nc1cc(Cl)cc(NC(=O)c2cc(-c3ncc(F)cc3C)cs2)c1 [Example 226]
6590	Cc1sc(C(=O)Nc2cc(Br)cc(NS(C)(=N)=O)c2)cc1-c1ccccn1 (stereo not drawn) [Example 123]
> 10000	CS(=O)(=O)Nc1cc(Cl)cc(NC(=O)c2cnn(C3CC4(CNC4)C3)c2)c1 [Example 146]
201	CS(=O)(=O)Nc1cc(Br)cc(NC(=O)c2cc(-n3cccn3)cs2)c1 [Example 60]
96.1	Cc1cc(C(=O)Nc2cc(Cl)cc(NS(C)(=O)=O)c2)cn1-c1ncc(N2CCOCC2)cc1F [Example 320]

Same assay, conditions: Homo sapiens, HCT-116, circBRIP1, HCT116 cells; ^+ SyBr assay was used; read-out: DHX9 Cellular Target Engagement EC50

EC50 [nM]	SMILES
860	CCS(=O)(=O)Nc1cc(Cl)cc(NC(=O)c2cc(-c3ncc(F)cn3)c(C3CC3)s2)c1 [Example 449]
5310	CS(=O)(=O)Nc1cc(Cl)cc(NC(=O)c2cc(C(=O)N3CCN(c4ccccc4)CC3)n(-c3ccccn3)c2)c1 [Example 654]
8720	CS(=O)(=O)Nc1cc(Cl)cc(NC(=O)c2cc(C(=O)N3CCCCC3)n(-c3ccccn3)c2)c1 [Example 644]
153	Cn1cc(C(=O)Nc2cc(Cl)cc(NS(C)(=O)=O)c2)cc1-c1ncc(Cl)cn1 [Example 577]
146	Cn1cc(C(=O)Nc2cc(Cl)cc(NS(C)(=O)=O)c2)cc1-c1ccc(C(F)(F)F)cn1 [Example 569]
1510	Cc1sc(C(=O)Nc2cc(Cl)cc(NS(C)(=O)=O)c2)cc1-c1ncc(F)cc1-c1ccc(=O)n(C)c1 [Example 606]
491	Cc1cc(C(=O)Nc2cc(Cl)cc(NS(C)(=O)=O)c2)cn1-c1ncc(Cl)cn1 [Example 578]

Same assay, conditions: Homo sapiens, HCT-116, read-out: DHX9 Cellular Target Engagement EC50

SMILES	EC50 [nM]
CS(=O)(=O)Nc1cc(F)cc(NC(=O)c2cc(Br)cs2)c1 [Example 71, 4-bromo-N-(3-fluoro-5-(methylsulfonamido)phenyl)thiophene-2-carboxamide]	26300

Test system: circBRIP1 in HCT116 cells
Test: DHX9 circBRIP1 cellular target engagement TaqMan Multiplex assay (qPCR)
Format: cell-based
Conditions: Homo sapiens, HCT-116, 72 h, circBRIP1, HCT116 cells, 72 hours; Taqman assay (marked *); read-out: DHX9 Cellular Target Engagement EC50

EC50 [µM]	SMILES
0.387	COc1cnc(-c2cc(C(=O)Nc3cc(Cl)cc(NS(C)(=O)=O)c3)sc2C)c(Cl)c1 [Example 364]
0.362	CCS(=O)(=O)Nc1cc(Cl)cc(NC(=O)c2cc(-c3ncc(F)cc3Cl)c(C)s2)c1 [Example 355]
0.124	Cc1sc(C(=O)Nc2cc(Cl)cc(NS(C)(=O)=O)c2)cc1-c1c(F)cncc1F [Example 362]
1.97	Cc1cccnc1-c1ccc(C(=O)Nc2cc(Cl)cc(NS(C)(=O)=O)c2)s1 [Example 386]

Same assay, conditions: Homo sapiens, HCT-116, circBRIP1, HCT116 cells; * Taqman assay was used; read-out: DHX9 Cellular Target Engagement EC50

SMILES	EC50 [µM]
Cc1cc(C(=O)Nc2cc(Cl)cc(NS(C)(=O)=O)c2)cn1-c1ncc(N2CC(F)(F)C2)cc1C(F)(F)F [Example 407]	0.517
Cc1cc(C(=O)Nc2cc(Cl)cc(NS(C)(=O)=O)c2)cn1-c1ccc(N2CCOC2=O)cn1 [Example 416]	0.133
Cc1cc(C(=O)Nc2cc(Cl)cc(NS(C)(=O)=O)c2)cn1-c1ncc(N2CCOC2=O)cn1 [Example 417]	0.223
Cc1cc(N2CC(F)(F)C2)cnc1-n1cc(C(=O)Nc2cc(Cl)cc(NS(C)(=O)=O)c2)cc1C [Example 419]	0.121
Cc1cc(C(=O)Nc2cc(Cl)cc(NS(C)(=O)=O)c2)cn1-c1ncc(N2CCC3(C2)CC3(F)F)cc1F (stereo not drawn) [Example 414]	0.128

Other lines, results leading:

EC50 [µM]	SMILES
0.638	CS(=O)(=O)Nc1cc(Cl)cc(NC(=O)c2cc(-c3ccc(F)cn3)n(S(C)(=O)=O)c2)c1 [Example 701]
0.0431	Cc1sc(C(=O)Nc2cc(Cl)cc(NS(C)(=O)=O)c2)cc1-c1ncc(O)cn1 [Example 583]
> 10	Cc1sc(C(=O)Nc2cc(Cl)cc(NS(C)(=O)=O)c2)cc1-c1ncc(OC(C)(C)C(=O)O)cn1 [Example 670]
0.224	Cc1nc(COc2cc(F)cnc2-c2cc(C(=O)Nc3cc(Cl)cc(NS(C)(=O)=O)c3)cn2C)cs1 [Example 724]
1.01	Cn1cc(C(=O)Nc2cc(Cl)cc(NS(C)(=O)=O)c2)cc1-c1ncc(F)cc1OCc1nnnn1C [Example 625]
> 10	Cc1sc(C(=O)Nc2cc(Cl)cc(NS(C)(=O)=O)c2)cc1N1C(=O)N(C)C(C)(c2ccccn2)C1=O (stereo not drawn) [Example 660]
0.192	Cc1cc(F)cnc1-c1cc(C(=O)Nc2cc(Cl)cc(NS(C)(=O)=O)c2)cn1C [Example 545]
0.34	Cn1cc(C(=O)Nc2cc(Cl)cc(NS(C)(=O)=O)c2)cc1-c1c(F)cc(F)c[n+]1[O-] [Example 567]
0.804	CC(C)n1cc(C(=O)Nc2cc(Cl)cc(NS(C)(=O)=O)c2)cc1-c1ncc(F)cn1 [Example 667]
0.181	Cn1cc(C(=O)Nc2cc(Cl)cc(NS(C)(=O)=O)c2)cc1-c1ncc(N2CCN(C(=O)C3CC3)CC2)cc1F [Example 714]
2.91	Cn1cc(C(=O)Nc2cc(F)cc(NS(C)(=O)=O)c2)cc1-c1ncc(F)cc1F [Example 558]
0.117	CCc1sc(C(=O)Nc2cc(Cl)cc(NS(C)(=O)=O)c2)cc1-c1ccc(F)cn1 [Example 589]
0.382	Cn1cc(C(=O)Nc2cc(Cl)cc(NS(C)(=O)=O)c2)cc1-c1ncc(F)cc1/C=C/c1cncc(F)c1 [Example 729]
6.86	CC(=O)N1CCN(c2cc(F)cnc2-c2cc(C(=O)Nc3cc(Cl)cc(NS(C)(=O)=O)c3)sc2C)CC1 [Example 504]
0.0266	CN1CC[C@H](Oc2cnc(-c3cc(C(=O)Nc4cc(Cl)cc(NS(C)(=O)=O)c4)cn3C)c(F)c2)C1 [Example 639, N-(3-chloro-5-methanesulfonamidophenyl)-5-(3-fluoro-5-{[(3S)-1-methylpyrrolidin-3-yl]oxy}pyridin-2-yl)-1-methylpyrrole-3-carboxamide]
0.127	Cn1cc(C(=O)Nc2cc(Cl)cc(NS(C)(=O)=O)c2)cc1-c1ncc(N2CCC(C(F)(F)F)CC2)cc1F [Example 472]
0.303	Cn1cc(C(=O)Nc2cc(Cl)cc(NS(C)(=O)=O)c2)cc1-c1ccc(N2CCN(C(=O)C3CCCC3)CC2)cn1 [Example 592]
1.68	Cn1cc(C(=O)Nc2cc(Cl)cc(NS(=O)(=O)CCO)c2)cc1-c1ncc(F)cc1F [Example 581]
0.274	CCOc1cc(F)cnc1-c1cc(C(=O)Nc2cc(Cl)cc(NS(C)(=O)=O)c2)cn1C [Example 561]
0.761	CS(=O)(=O)Nc1cc(Cl)cc(NC(=O)c2cc(-c3ncccc3F)n(CC(F)(F)F)c2)c1 [Example 564]
0.156	Cc1cnc(-c2cc(C(=O)Nc3cc(Cl)cc(NS(C)(=O)=O)c3)cn2C)c(F)c1 [Example 580]
0.71	Cn1cc(C(=O)Nc2cc(Cl)cc(NS(C)(=O)=O)c2)cc1-c1ccccc1/C=C/c1cncc(F)c1 [Example 727]
0.387	COc1ccc(F)c(-c2cc(C(=O)Nc3cc(Cl)cc(NS(C)(=O)=O)c3)cn2C)n1 [Example 703]
0.186	Cc1cc(N2CCC(F)(F)CC2)cnc1-c1cc(C(=O)Nc2cc(Cl)cc(NS(C)(=O)=O)c2)cn1C [Example 600]

Same assay, conditions: Homo sapiens, HCT-116, read-out: DHX9 Cellular Target Engagement EC50 (μM)

SMILES	EC50 [µM]
Cc1sc(C(=O)Nc2cc(Cl)cc(NS(C)(=O)=O)c2)cc1-c1ncc(N2CC[Si](C)(C)CC2)cc1F [Example 473]	0.426

Source: patent US12162867B2, “Inhibitors of RNA helicase DHX9 and uses thereof” (ACCENT THERAPEUTICS, INC., priority 2022, dated 2024)
